Measurements from paper PMC3250956, “Functional characterization and analgesic effects of mixed cannabinoid receptor/T-type channel ligands” (Molecular Pain, 2011).

Experiments:
rat 5-HT2C = biological target: T1, rat 5-HT2C (Rattus norvegicus, UniProt P08909); assay: Primary radioligand competitive binding assay, [3H]mesulergine; settings: ligand 10 μM, HEK293 cells
T1 construct: expressed in transfected cells; host or cells: HEK293 (Flp-In system, pcDNA5.0FRT)
T1 sequence (P08909 33-460): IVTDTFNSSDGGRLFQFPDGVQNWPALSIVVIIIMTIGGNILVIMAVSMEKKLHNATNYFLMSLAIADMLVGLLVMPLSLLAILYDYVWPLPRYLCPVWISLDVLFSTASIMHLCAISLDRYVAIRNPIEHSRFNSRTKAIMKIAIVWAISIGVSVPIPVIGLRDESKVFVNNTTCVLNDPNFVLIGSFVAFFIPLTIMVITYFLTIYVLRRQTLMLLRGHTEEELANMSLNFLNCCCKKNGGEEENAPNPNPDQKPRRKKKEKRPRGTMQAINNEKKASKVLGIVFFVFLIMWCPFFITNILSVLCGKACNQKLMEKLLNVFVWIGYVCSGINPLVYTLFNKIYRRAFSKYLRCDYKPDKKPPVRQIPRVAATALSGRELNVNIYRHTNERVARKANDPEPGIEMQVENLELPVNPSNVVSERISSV
Description: HEK293 cells and CHO cells were used in the radioligand binding assay while tsA-201 cells were used in the electrophysiological study. Human CB2, human 5-HT2A, rat 5-HT2C used in the binding studies were cloned into pcDNA5.0FRT and cell lines were made using the FlpIn system from Invitrogen. tsA-201 cell culture and transient calcium channel transfection were performed as described previously. In brief, tsA-201 cells were transfected using the calcium phosphate method. Cav3.1, 3.2 and 3.3 α1 subunits were transfected individually with yellow fluorescent protein as a transfection marker.
Radioligand binding data were obtained using National Institute of Mental Health's Psychoactive Drug Screening Program (NIMH/PDSP) using the same protocol described for CB1 and CB2 binding experiments. Transfected HEK293 (human 5-HT2A or rat 5-HT2C) cells were used. The radioligands were [^3H]ketanserin (0.5 nM) and [^3H]mesulergine (0.5 nM) for respectively 5-HT2A and 5-HT2C experiments. Non-specific binding was determined in the presence of 10 μM chlorpromazine for both 5-HT2A and 5-HT2C binding experiments. Cells were harvested and homogenized in 50 mM Tris HCl, 10 mM MgCl2, 0.1 mM EDTA, pH 7.4. Incubation of radioreceptor binding assay mixtures was 1.5 hours at room temperature in the dark.

formalin-induced pain = assay: Formalin test (formalin-induced nociception); assay type: in vivo, mice; settings: for effect on second phase of formalin-induced nociception / effect on first phase of formalin-induced nociception: i.pl., co-injected with formalin; for effect on second phase of formalin-induced nociception: 0.03-3 μg/paw; for effect on first phase of formalin-induced nociception: NMP-4 and NMP-144 0.03-3 μg/paw, NMP-7 0.3-3 μg/i.pl.; for reduction of pain response time, first (neurogenic) phase / reduction of pain response time, second (inflammatory) phase: 10 min prior, NMP-4 1-10 μg/i.t., NMP-144 0.1-1 μg/i.t., NMP-7 3-30 μg/i.t., mice
Description: All experiments were conducted following the protocol approved by the Institutional Animal Care and Use Committee (protocol #M09130) and all efforts were made to minimize animal suffering. Male mice of C57BL/6J strain weighing 25~30 g, 10 weeks old were used. Animals were housed at a maximum number of five per cage (30 × 20 × 15 cm) with food and water ad libitum. They were kept in 12 h light/dark cycles (lights on at 7:00 a.m.) at a temperature of 23 ± 1°C. All manipulations were carried out between 11:00 am and 3:00 pm. […] Control animals received the same vehicle used to dilute the compounds. When drugs were delivered by intraperitoneal (i.p.) route, a constant volume of 10 ml/kg body weight was injected. When drugs were administered by intrathecal (i.t.) or intraplantar (i.pl.) routes, respectively volumes of 5 μl or 20 μl were injected. Appropriate vehicle-treated groups were also assessed simultaneously.
The formalin test is a widely used model that allows us to evaluate two different types of pain: neurogenic pain (phase 1) is caused by direct activation of nociceptive nerve terminals, while inflammatory pain (phase 2) is mediated by a combination of peripheral input and spinal cord sensitization. Animals received 20 μl of a formalin solution (1.25%) made up in PBS injected intraplantarly (i.pl.) in the ventral surface of the right hindpaw. Following i.pl. injection of formalin, the animals were immediately placed individually into observation chambers and the time spent licking or biting the injected paw was be recorded and considered as nociceptive response. We observed animals individually from 0-5 min (neurogenic phase) and 15-30 min (inflammatory phase).
Intrathecal injections were given to fully conscious mice using the method previously described by Hylden and Wilcox. Briefly, the animals were manually restrained, and a 30-gauge needle connected by a polyethylene tube to a 25 μl Hamilton syringe (Hamilton, Birmingham, UK) was inserted through the skin and between the vertebrae into the […] space of the L5-L6 spinal segments. Intrathecal injections were given over a period of 5 seconds.

Human CB1 = Human CB1 (Homo sapiens, UniProt P21554); assay: GTPγ[35S] functional assay, CHO cell membrane extracts; design: Emax: dose or concentration left out as unconfirmed
Description: Functional activity was evaluated using GTPγ[^35S] assay in CHO cell membrane extracts expressing recombinant human CB1 or CB2 receptors as we previously described [51]. Compounds were solubilized in 100% DMSO at a concentration of 10 mM within 4 hours of the first testing session. A predilution for the dose response curve was performed in 100% DMSO and then diluted 100 fold in assay buffer at a concentration 2 fold higher than the concentration to be tested. […] Membranes were mixed with GDP diluted in assay buffer to give 30 μM solution (volume:volume) and incubated for at least 15 min on ice. In parallel, GTPγ[^35S] (GE Healthcare, Catalogue number SJ1308) were mixed with the beads (PVT-WGA (GE Healthcare, RPNQ001)), diluted in assay buffer at 50 mg/ml (0.5 mg/10 μl) (volume:volume) just before starting the reaction. The following reagents were successively added in the wells of an Optiplate (Perkin Elmer): 50 μl of ligand, 20 μl of the membranes:GDP mix, 10 μl of assay buffer for agonist testing, and 20 μl of the GTPγ[^35S]:beads mix. The plates were covered with a topseal, shacked on an orbital shaker for 2 min, and then incubated for 1 hour at room temperature. Then the plates were centrifuged for 10 min at 2000 rpm and counted for 1 min/well with a PerkinElmer TopCount reader. […] For replicate determinations, the maximum variability tolerated in the test was of ± 20% around the average of the replicates.

N-type calcium channels = biological target: T2, N-type calcium channels (Homo sapiens, UniProt Q00975); assay: Whole-cell patch-clamp on N-type calcium channels; assay type: cell-based; settings: n = 5, read-out: effect on N-type calcium channels (inhibition)
T2 construct: expressed in transfected cells; host or cells: tsA-201 cells (general electrophysiology statement)
T2 sequence (P54289 25-956): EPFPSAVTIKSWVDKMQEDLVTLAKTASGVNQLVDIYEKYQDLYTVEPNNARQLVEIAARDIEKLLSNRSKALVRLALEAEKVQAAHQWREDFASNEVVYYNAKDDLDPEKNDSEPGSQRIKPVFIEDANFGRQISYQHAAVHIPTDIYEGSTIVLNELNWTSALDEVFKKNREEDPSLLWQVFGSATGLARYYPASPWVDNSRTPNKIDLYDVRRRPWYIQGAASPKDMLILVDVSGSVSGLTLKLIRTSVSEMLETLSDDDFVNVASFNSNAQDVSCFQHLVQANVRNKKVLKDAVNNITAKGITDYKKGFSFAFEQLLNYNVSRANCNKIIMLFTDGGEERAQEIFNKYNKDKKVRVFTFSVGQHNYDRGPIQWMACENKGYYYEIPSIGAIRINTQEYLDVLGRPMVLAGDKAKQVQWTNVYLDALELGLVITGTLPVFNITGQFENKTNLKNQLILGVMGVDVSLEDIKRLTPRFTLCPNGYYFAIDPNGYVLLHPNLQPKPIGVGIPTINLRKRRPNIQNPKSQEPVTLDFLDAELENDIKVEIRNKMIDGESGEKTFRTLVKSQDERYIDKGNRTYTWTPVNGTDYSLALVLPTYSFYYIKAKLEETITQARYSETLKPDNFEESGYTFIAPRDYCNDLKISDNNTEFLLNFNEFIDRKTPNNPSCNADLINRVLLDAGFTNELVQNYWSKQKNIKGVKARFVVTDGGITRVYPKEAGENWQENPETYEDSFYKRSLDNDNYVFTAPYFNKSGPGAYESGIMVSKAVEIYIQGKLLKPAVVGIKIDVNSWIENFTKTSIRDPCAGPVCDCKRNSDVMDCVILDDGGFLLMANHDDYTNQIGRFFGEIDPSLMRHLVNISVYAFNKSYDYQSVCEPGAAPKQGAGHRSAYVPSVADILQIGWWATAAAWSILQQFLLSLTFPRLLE
T2 sequence (Q00975 whole entry): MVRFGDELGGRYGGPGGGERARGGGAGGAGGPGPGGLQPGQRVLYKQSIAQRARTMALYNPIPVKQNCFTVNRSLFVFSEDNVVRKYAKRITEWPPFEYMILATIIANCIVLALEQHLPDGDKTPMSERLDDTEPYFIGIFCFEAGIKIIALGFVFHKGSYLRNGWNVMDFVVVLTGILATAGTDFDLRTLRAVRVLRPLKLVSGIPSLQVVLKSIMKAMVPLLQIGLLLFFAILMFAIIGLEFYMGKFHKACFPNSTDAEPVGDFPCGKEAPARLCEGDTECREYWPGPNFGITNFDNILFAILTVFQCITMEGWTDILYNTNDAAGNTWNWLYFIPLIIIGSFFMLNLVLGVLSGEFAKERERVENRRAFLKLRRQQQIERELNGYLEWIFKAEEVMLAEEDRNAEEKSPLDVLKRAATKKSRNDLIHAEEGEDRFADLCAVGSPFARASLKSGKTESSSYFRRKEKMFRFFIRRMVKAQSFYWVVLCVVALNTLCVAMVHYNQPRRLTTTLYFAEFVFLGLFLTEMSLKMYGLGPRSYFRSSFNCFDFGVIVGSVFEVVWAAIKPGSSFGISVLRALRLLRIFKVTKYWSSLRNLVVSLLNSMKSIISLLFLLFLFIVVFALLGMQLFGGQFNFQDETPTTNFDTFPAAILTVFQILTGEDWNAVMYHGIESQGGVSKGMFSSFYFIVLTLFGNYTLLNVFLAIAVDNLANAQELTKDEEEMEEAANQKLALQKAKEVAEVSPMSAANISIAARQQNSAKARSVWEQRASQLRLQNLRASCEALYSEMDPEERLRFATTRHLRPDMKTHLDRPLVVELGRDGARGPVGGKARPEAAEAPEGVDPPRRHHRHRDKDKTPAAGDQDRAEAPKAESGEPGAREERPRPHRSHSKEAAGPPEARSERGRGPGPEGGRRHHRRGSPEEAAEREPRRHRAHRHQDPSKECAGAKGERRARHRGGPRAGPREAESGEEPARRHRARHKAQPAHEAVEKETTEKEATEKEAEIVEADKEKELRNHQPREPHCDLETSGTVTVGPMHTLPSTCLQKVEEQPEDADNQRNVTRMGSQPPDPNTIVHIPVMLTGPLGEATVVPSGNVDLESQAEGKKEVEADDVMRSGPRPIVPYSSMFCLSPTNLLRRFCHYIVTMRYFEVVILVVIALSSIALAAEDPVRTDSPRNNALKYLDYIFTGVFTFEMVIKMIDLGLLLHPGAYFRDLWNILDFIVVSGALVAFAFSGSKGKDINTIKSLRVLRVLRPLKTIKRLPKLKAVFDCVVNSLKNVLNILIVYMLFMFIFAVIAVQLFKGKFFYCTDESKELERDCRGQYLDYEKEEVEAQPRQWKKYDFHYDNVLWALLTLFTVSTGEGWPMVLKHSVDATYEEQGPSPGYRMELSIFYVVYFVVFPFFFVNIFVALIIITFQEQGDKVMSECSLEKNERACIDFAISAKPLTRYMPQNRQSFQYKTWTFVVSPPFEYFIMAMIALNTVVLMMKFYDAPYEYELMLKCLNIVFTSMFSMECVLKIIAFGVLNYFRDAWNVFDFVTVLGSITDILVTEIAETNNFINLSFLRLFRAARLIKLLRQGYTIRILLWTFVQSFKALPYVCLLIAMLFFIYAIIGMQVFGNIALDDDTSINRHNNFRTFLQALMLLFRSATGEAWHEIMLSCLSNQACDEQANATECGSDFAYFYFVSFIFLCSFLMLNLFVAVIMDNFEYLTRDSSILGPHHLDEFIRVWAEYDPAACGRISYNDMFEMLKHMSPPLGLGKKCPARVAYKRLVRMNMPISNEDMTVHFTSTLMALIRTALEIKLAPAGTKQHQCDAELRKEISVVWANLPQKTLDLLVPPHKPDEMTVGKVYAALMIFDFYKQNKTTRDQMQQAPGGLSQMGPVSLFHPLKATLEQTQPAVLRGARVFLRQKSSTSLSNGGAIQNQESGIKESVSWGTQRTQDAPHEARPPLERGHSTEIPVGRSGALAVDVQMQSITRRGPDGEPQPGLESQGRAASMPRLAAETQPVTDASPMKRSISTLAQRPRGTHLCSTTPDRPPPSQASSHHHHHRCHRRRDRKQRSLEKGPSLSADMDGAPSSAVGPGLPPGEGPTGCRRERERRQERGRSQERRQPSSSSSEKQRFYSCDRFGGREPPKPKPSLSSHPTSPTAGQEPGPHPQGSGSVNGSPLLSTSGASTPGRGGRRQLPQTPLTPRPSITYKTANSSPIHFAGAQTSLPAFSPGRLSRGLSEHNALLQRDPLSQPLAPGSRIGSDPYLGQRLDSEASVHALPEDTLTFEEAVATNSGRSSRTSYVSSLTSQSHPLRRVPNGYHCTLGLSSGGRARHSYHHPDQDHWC
T2 sequence (P54289 957-1103): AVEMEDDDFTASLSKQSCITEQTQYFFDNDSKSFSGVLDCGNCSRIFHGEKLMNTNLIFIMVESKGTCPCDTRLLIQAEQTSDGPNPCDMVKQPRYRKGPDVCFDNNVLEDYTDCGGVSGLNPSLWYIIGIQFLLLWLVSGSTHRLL
T2 sequence (Q02641 whole entry, further chain): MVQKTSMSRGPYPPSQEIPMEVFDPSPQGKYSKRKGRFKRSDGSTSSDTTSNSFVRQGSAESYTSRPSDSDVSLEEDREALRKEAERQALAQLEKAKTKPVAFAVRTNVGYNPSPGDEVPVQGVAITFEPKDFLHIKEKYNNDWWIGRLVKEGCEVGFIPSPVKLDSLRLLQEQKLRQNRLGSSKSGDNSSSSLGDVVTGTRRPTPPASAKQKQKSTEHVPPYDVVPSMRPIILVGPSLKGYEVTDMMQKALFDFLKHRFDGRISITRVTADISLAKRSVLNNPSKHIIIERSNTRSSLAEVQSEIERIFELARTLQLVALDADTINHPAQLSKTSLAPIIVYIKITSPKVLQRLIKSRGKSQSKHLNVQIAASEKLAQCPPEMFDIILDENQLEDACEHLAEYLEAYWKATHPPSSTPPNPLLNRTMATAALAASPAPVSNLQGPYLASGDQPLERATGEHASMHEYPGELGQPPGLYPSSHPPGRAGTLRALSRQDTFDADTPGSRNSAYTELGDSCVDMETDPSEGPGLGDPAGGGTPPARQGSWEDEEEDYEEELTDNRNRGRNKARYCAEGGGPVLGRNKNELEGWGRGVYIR

Human CB1, sequence (P21554 whole entry): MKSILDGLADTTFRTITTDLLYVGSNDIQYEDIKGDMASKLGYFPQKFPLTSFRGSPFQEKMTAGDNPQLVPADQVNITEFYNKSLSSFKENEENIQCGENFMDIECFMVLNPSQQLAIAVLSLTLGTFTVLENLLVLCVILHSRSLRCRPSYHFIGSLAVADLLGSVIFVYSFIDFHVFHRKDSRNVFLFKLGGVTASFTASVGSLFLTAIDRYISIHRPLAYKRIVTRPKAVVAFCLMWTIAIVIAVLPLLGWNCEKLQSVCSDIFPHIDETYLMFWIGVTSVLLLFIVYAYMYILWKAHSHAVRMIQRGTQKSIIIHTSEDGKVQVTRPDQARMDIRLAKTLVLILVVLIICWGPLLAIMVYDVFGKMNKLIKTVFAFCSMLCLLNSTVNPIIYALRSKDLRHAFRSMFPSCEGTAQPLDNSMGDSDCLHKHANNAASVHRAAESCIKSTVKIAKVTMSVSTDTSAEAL

| SMILES | Rat 5-HT2C (%) primary radioligand competitive binding (rat 5-HT2C) | effect of i.pl. pre-treatment on the antinociceptive effect of NMP-7 (1 μg/i.pl.), first phase (formalin-induced pain; NMP-4 0.03 μg/i.pl. pre-treatment) | effect on second phase of formalin-induced nociception (formalin-induced pain) | effect on first phase of formalin-induced nociception (formalin-induced pain) | reduction of pain response time, first (neurogenic) phase (formalin-induced pain; i.t.) | reduction of pain response time, second (inflammatory) phase (formalin-induced pain; i.t.) | EC50 (Human CB1) | Emax (Human CB1; read-out: GTPγ[35S] functional assays Human CB1 Emax) | inhibition at 10 µM (N-type calcium channels) | lowest dose producing analgesia (formalin-induced pain; i.t., formalin response) |
| --- | --- | --- | --- | --- | --- | --- | --- | --- | --- | --- |
| CCCCCn1c2ccc(C(=O)N3CCCCC3)cc2c2ccc(OC)cc21 [NMP-4] | -9.3% | significantly antagonized | no effect was observed | no effect was observed | 44 ± 4% | 87 ± 7% | 118 ± 4 nM | 30.4% |  |  |
| CCCCCn1c2c(c3ccc(OC)cc31)CN(C(=O)c1ccccc1)CC2 [NMP-144] | 13% |  | no effect was observed | no effect was observed | 52 ± 3% | 53 ± 14% |  |  | 20% | 0.3 μg/i.t. |
